Assay results as given in the supplement of paper PMC5908809.

Tests used:
Test in all cases: relative IC50 (inflection point of fitted viability curve, relative to fitted max inhibition); higher = less sensitive
Settings in all cases: 72 h
[1] = system: DERL-7 (IL-2 2.5 ng/mL)
Method: (§1)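 Drug sensitivity and resistance testing: 5 concentrations over a 10,000-fold range, 72 h at 37 °C, viability by CellTiter-Glo normalised to DMSO and benzethonium chloride controls. IC50 is the inflection point of a logistic fit (min fixed at 0, max fitted), so it is relative to the fitted maximal inhibition. Kept only where fitted max inhibition is at least 50%.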

[2] = system: IMC-1 (IL-2 20 ng/mL)
Method: as §1

[3] = system: KAI3 (IL-2 2.5 ng/mL)
Method: as §1

[4] = system: KHYG-1 (IL-2 2.5 ng/mL)
Method: as §1

[5] = system: NK-92 (IL-2 2.5 ng/mL)
Method: as §1

[6] = system: NK-YS (IL-2 2.5 ng/mL)
Method: as §1

[7] = system: NKL (IL-2 2.5 ng/mL)
Method: as §1

[8] = system: SNK-6 (IL-2 2.5 ng/mL)
Method: as §1

[9] = system: YT (IL-2 2.5 ng/mL)
Method: as §1

[10] = system: normal primary NK cells, pool 1 (3 donors), resting (IL-2 0 ng/mL)
Method: as §1

[11] = system: normal primary NK cells, pool 1 (3 donors) (IL-2 2.5 ng/mL)
Method: as §1

[12] = system: normal primary NK cells, pool 2 (3 donors) (IL-2 2.5 ng/mL)
Method: as §1

[13] = system: normal primary NK cells, pool 3 (3 donors) (IL-2 2.5 ng/mL)
Method: as §1

SMILES | relative IC50 [1] [nM] | relative IC50 [2] [nM] | relative IC50 [3] [nM] | relative IC50 [4] [nM] | relative IC50 [5] [nM] | relative IC50 [6] [nM] | relative IC50 [7] [nM] | relative IC50 [8] [nM] | relative IC50 [9] [nM] | relative IC50 [10] [nM] | relative IC50 [11] [nM] | relative IC50 [12] [nM] | relative IC50 [13] [nM]
CC(C)Oc1ccc(C(=O)N[C@H](CNC(=O)CN(C)C)Cc2ccc(-c3cn4cccc([C@H](C)O)c4n3)cc2)cc1Cl | 70.3 | 261 | 439 | 123 | 204 | 56.7 | 54.3 | 24.9 | 48.2 | 4570 | – | – | –
CCn1c(-c2nonc2N)nc2c(C#CC(C)(C)O)ncc(OC[C@H]3CCCNC3)c21 | 269 | – | – | – | – | – | – | – | – | 1730 | 2160 | 2190 | 1870
CCn1c(-c2nonc2N)nc2cnc(Oc3cccc(NC(=O)c4ccc(OCCN5CCOCC5)cc4)c3)cc21 | 63.4 | – | 1280 | 1120 | 287 | – | 1070 | 50.4 | – | 1660 | 1540 | 1970 | 1610
Cc1ccc2nc(CN(CCN(Cc3nc4ccc(C)cc4[nH]3)Cc3nc4ccc(C)cc4[nH]3)Cc3nc4ccc(C)cc4[nH]3)[nH]c2c1 | 8270 | 8640 | 3470 | 6250 | 3900 | 8980 | 2160 | 18200 | 7070 | 8020 | 7650 | – | –
Cn1cc(C2=Nc3cc(NC(=O)C(N)C4CCCCC4)cc4c3C2=CNNC4=O)cn1 (stereo unspecified) | 1000 | 259 | 215 | 134 | 505 | 442 | 652 | 238 | 492 | – | 3520 | 2370 | 1960
NCC(=O)Nc1ccc(-n2nc(C(F)(F)F)cc2-c2ccc3c(ccc4ccccc43)c2)cc1 | – | 4370 | 4900 | 1310 | 4950 | 1980 | 4070 | 3810 | 5540 | – | – | 7200 | 7230
O=C(Nc1ccc2[nH]nc(-c3ccncc3)c2c1)[C@@H]1CCN(CC(=O)N2CCN(c3ccc(-c4ncccn4)cc3)CC2)C1 | 382 | > 10000 | – | 784 | – | – | 516 | – | – | 1670 | – | – | –
COc1cc2c(cc1O)CC[C@@H]1[C@@H]2CC[C@]2(C)[C@@H](O)CC[C@@H]12 [2-methoxyestradiol] | 589 | 791 | 442 | 319 | 153 | 260 | 243 | 263 | 373 | – | – | – | –
COCC1(CO)C(=O)C2CCN1CC2 (stereo unspecified) [APR-246] | – | – | – | – | – | – | – | – | – | 277 | 566 | 393 | 442
COc1cc(Nc2ncc3c(n2)-c2ccc(Cl)cc2C(c2c(F)cccc2OC)=NC3)ccc1C(=O)O [Alisertib] | 28.2 | 116 | 116 | 50.5 | 41.3 | 22 | 52.5 | 39.5 | 91.9 | – | – | – | –
CCS(=O)(=O)N1CC(CC#N)(n2cc(-c3ncnc4[nH]ccc34)cn2)C1 [Baricitinib] | 51.9 | 451 | 18.4 | 26.2 | 95.8 | 63.5 | 12 | 73.3 | 163 | – | 46.9 | 54.4 | 124
CC(=O)N(O)CCCCCNC(=O)CCC(=O)N(O)CCCCCNC(=O)CCC(=O)N(O)CCCCCN [Deferoxamine] | – | 3210 | – | – | – | – | – | – | – | – | – | – | 1580
CNC(=O)c1ccc(N2C(=S)N(c3ccc(C#N)c(C(F)(F)F)c3)C(=O)C2(C)C)cc1F [Enzalutamide] | > 10000 | – | > 10000 | – | – | – | – | – | – | – | – | – | > 10000
O=c1[nH]c(=O)n([C@H]2C[C@H](O)[C@@H](CO)O2)cc1F [Floxuridine] | 31 | 128 | 10.1 | 8.42 | 19.5 | 28.9 | 75.2 | 68.6 | 286 | – | – | – | > 10000
C[C@@H]1C=C2C(=O)O[C@@H]3CC[C@H](C1)[C@]23O [Galiellalactone] | 3110 | – | 3340 | 5240 | 5040 | 3660 | – | 3970 | 8550 | 3720 | 4800 | 5560 | 7360
Cc1cc(Nc2cc(CN3CCOCC3)c3nc(C)c(Cc4ccc(Cl)cc4F)n3n2)n[nH]1 [Gandotinib] | 163 | 1260 | 89.6 | 107 | 236 | 260 | 75 | 230 | 448 | – | 362 | 183 | 669
COc1cc2ncnc(Nc3ccc(F)c(Cl)c3)c2cc1OCCCN1CCOCC1 [Gefitinib] | 3010 | – | 1710 | 2270 | 2660 | – | 1770 | – | 2390 | 3700 | – | – | –
O=C(O)c1ccc(O)c2ncccc12 [IOX-1] | 21600 | 37400 | 17000 | 28400 | 26400 | 32200 | 29100 | 20200 | 32700 | – | – | – | –
